Tested on: TGF-β1-stimulated human fibroblasts
Experiment: Collagen I production from TGF-β1-stimulated human fibroblasts (ELISA)
Type: cell-based
Conditions: for inhibition of collagen I secretion: at a concentration of 5-10 mM; for % Control Collagen Production: 30 min pretreatment, 7 ng/mL TGF-β1 for 48 hrs, collagen I per μg cell lysate
Procedure: In vitro fibrosis is assessed by measuring collagen synthesis after treatment of fibroblast cells with a profibrotic stimuli such as TGF-β1 or bleomycin. Collagen secretion into the media can be quantified in conditioned media using an appropriate ELISA kit.
Confluent monolayers of human fibroblasts, plated onto duplicate 35 mm dishes, were pretreated with various concentrations of compounds 2, 6, and 7 for 30 min followed by stimulation of the cells with 7 ng/mL TGF-β1 for 48 hrs. At the end of the experiment, conditioned media were collected and assessed for the presence of secreted collagen I, whereas cells were collected and lysed. Collagen I secretion was quantified using an ELISA kit from R&D Systems per the manufacturer's instructions and expressed as arbitrary absorbance units per μg of cell lysate. In Table 2, results are shown as % Control Collagen Production, defined as the amount of collagen I secreted per μg of cell lysate from fibroblast cultures stimulated with TGF-β1 in the absence of an inhibitor.

SMILES | inhibition of collagen I secretion | % Control Collagen Production (compound concentration 2 mM) | % Control Collagen Production (compound concentration 5 mM) | % Control Collagen Production (compound concentration 10 mM)
CC(=O)C(CCC(=O)O)c1ccccc1 (stereo not drawn) [Compound 7, 5-oxo-4-phenylhexanoic acid] | completely inhibit | 150% | 41% | 2%
CC(=O)C(C)CC(Cc1ccccc1)C(=O)O (stereo not drawn) [Compound 2, 2-benzyl-4-methyl-5-oxohexanoic acid] | completely inhibit | – | 4% | –
CC(CCC(=O)O)C(=O)c1ccccc1 (stereo not drawn) [Compound 6, 4-methyl-5-oxo-5-phenylpentanoic acid] | completely inhibit | – | 77% | 2%

From patent US10941109B2, “Compositions and methods of treatment using a BCAT1 inhibitor” (Ergon Pharmaceuticals, LLC, priority 2011, dated 2021)
